# According to patent US6630473B1, “Anti-inflammatory agents and inhibitors against increase in ocular tension caused by irradiation with lasers, containing 1,4-dihydropyridine derivatives” (Senju Pharmaceutical Co., Ltd., priority 1999, dated 2003):
# Where “and” joins values, the source holds several entries; their conditions need not be identical. Equal entries are not always repeated. Structures can show the parent of a compound that is named as a salt.
# How the values were obtained:
# [1] = system: intraocular inflammation induced by photocoagulation of iris due to argon laser irradiation; test: Anterior chamber protein concentration (laser flare cell meter) after argon laser irradiation of iris; format: in vivo, Male Dutch colored house rabbits; details: for protein concentration after laser irradiation, Treated eye / protein concentration after laser irradiation, Non-treated eye: mean ± SE (n = 4); for protein concentration after laser irradiation: intravenous 500 μg/500 μl/kg at 30 minutes and immediately before laser irradiation, mean ± standard error (n = 4)
# Description: (§1) The effect of the inventive compound on intraocular inflammation and rise of intraocular pressure induced by photocoagulation of iris due to argon laser irradiation was examined. As regards intraocular inflammation, the anterior chamber protein concentration (photon/msec) was used as an index. Male Dutch colored house rabbits weighing about 2 kg purchased from Fukusaki Rabbit Breeding Cooperative were used for the test, after confirmation of absence of abnormality. The rabbits were raised at temperature of 23±3° C., humidity of 55±10% on a solid feed (the NOSAN GROUP: Labo R Stock, NIHON NOSAN) 100 g a day, allowing free access to tap water. […] The argon laser was irradiated in the middle of both eyes between limbus and the base of iris at 5 sites at the same intervals, under the conditions of size: 200 μm, irradiation time (duration): 0.5 sec, output (power): 0.35 W. To remove the effect of fibrin that occurs after laser irradiation, heparin (1000 U/kg) was intravenously administered. The increase in the anterior chamber protein concentration caused by ophthalmic inflammation was measured with a laser flare cell meter (Kowa Co., Ltd.) immediately before, 30 minutes after and 1 hour after laser irradiation. Nicardipine hydrochloride was intravenously administered at 30 minutes and immediately before laser irradiation by 500 μg/500 μl/kg. Heparin was administered 5 minutes after the first administration of nicardipine hydrochloride. Heparin was administered to the control group at 30 minutes before laser irradiation. Into one eye of the house rabbits was instilled 0.05% and 0.1% iganidipine hydrochloride and 0.1% nicardipine hydrochloride, and into each opposite eye was instilled physiological saline by 10 μl at 30 minutes before laser irradiation. The eye instilled with the test material was taken as the treated eye, and the opposite eye instilled with physiological saline was taken as the non-treated eye. In view of the influence of the test material on the opposite eye, the control eyes were prepared, wherein physiological saline was instilled into one eye, and the other eye was not treated, respectively taken as the control of the treated eye and the control of the non-treated eye. Heparin was intravenously administered immediately after instillation of the test material and physiological saline.
# [2] = system: rise of intraocular pressure induced by photocoagulation of iris due to argon laser irradiation; test: Intraocular pressure (pneumatonograph) after argon laser irradiation of iris; format: in vivo, Male Dutch colored house rabbits
# Description: as §1, with “intraocular pressure of” for “increase in”, “both eyes” for “anterior chamber protein concentration caused by ophthalmic inflammation”, “measured” for “measured with a laser flare cell meter (Kowa Co., Ltd.)”, “before” for “before, 30 minutes after”, “0.25, 0.5, 1, 2, 3 and 4 hours” for “1 hour”
# [3] = system: prostaglandin E2 (PGE2) induced inflammatory responses in the anterior uveal tissues and rise of intraocular pressure; details: systemic administration before administration of PGE2; cited from earlier work
# [4] = system: experimental endophthalmitis induced by photocoagulation of iris by the argon laser; details: literature report; nicardipine by intravenous administration; cited from earlier work
compound,measurement,setting,value
"C=CCN1CCN(CC(C)(C)COC(=O)C2=C(C)NC(C)=C(C(=O)OC)C2c2cccc([N+](=O)[O-])c2)CC1.Cl.Cl (stereo not drawn) [iganidipine hydrochloride, 3-(4-allyl-1-piperazinyl)-2,2-dimethylpropyl methyl 2,6-dimethyl-4-(m-nitrophenyl)-1,4-dihydropyridine-3,5-dicarboxylate dihydrochloride]","protein concentration after laser irradiation, Treated eye","[1]; instillation of 0.05% iganidipine hydrochloride 10 μl 30 minutes before laser, time 0 min",20.55 ± 5.02 /msec
same,"protein concentration after laser irradiation, Treated eye","[1]; instillation of 0.05% iganidipine hydrochloride 10 μl 30 minutes before laser, time 30 min, dihydrochloride",73.8 /msec and 73.75 ± 8.67 /msec
same,"protein concentration after laser irradiation, Treated eye","[1]; instillation of 0.05% iganidipine hydrochloride 10 μl 30 minutes before laser, time 60 min",284.10 ± 17.03 /msec
same,"protein concentration after laser irradiation, Treated eye","[1]; instillation of 0.1% iganidipine hydrochloride 10 μl 30 minutes before laser, time 0 min",19.18 ± 2.37 /msec
same,"protein concentration after laser irradiation, Treated eye","[1]; instillation of 0.1% iganidipine hydrochloride 10 μl 30 minutes before laser, time 30 min, dihydrochloride",84.7 /msec and 84.70 ± 29.66 /msec
same,"protein concentration after laser irradiation, Treated eye","[1]; instillation of 0.1% iganidipine hydrochloride 10 μl 30 minutes before laser, time 60 min",227.18 ± 10.03 /msec
same,"protein concentration after laser irradiation, Non-treated eye","[1]; opposite eye (physiological saline) from eye instilled with 0.05% iganidipine hydrochloride, time 0 min",11.73 ± 2.97 /msec
same,"protein concentration after laser irradiation, Non-treated eye","[1]; opposite eye (physiological saline) from eye instilled with 0.05% iganidipine hydrochloride, time 30 min",68.53 ± 14.40 /msec
same,"protein concentration after laser irradiation, Non-treated eye","[1]; opposite eye (physiological saline) from eye instilled with 0.05% iganidipine hydrochloride, time 60 min",313.13 ± 27.06 /msec
same,"protein concentration after laser irradiation, Non-treated eye","[1]; opposite eye (physiological saline) from eye instilled with 0.1% iganidipine hydrochloride, time 0 min",16.03 ± 2.97 /msec
same,"protein concentration after laser irradiation, Non-treated eye","[1]; opposite eye (physiological saline) from eye instilled with 0.1% iganidipine hydrochloride, time 30 min",117.33 ± 31.50 /msec
same,"protein concentration after laser irradiation, Non-treated eye","[1]; opposite eye (physiological saline) from eye instilled with 0.1% iganidipine hydrochloride, time 60 min",244.45 ± 39.46 /msec
same,time to restore to the original intraocular pressure,[2]; eye instilled with 0.05%,90 min
same,rise of intraocular pressure from the initial value,"[2]; eye instilled with 0.05%, 30 minutes from laser irradiation (FIG. 3)",6 mmHg
same,time to restore to the original intraocular pressure,[2]; eye instilled with 0.1%,120 min
same,rise of intraocular pressure from the initial value,"[2]; eye instilled with 0.1%, 30 minutes from laser irradiation (FIG. 2)",7.5 mmHg
same,intraocular pressure of opposite (non-treated) eye compared with control group,"[2]; eye instilled with physiological saline opposite to the test-material eye, 3 hours after irradiation",more significant decrease
COC(=O)C1=C(C)NC(C)=C(C(=O)OCCN(C)Cc2ccccc2)C1c1cccc([N+](=O)[O-])c1 (stereo not drawn) [nicardipine hydrochloride],anterior chamber protein concentration compared with control group,"[1]; eye instilled with 0.1%, 30 minutes after laser irradiation",without difference from the control group
same,"protein concentration after laser irradiation, Treated eye","[1]; instillation of 0.1% nicardipine hydrochloride 10 μl 30 minutes before laser, time 0 min",20.55 ± 5.02 /msec
same,"protein concentration after laser irradiation, Treated eye","[1]; instillation of 0.1% nicardipine hydrochloride 10 μl 30 minutes before laser, time 30 min, hydrochloride",184.1 /msec and 184.05 ± 35.1 /msec
same,"protein concentration after laser irradiation, Treated eye","[1]; instillation of 0.1% nicardipine hydrochloride 10 μl 30 minutes before laser, time 60 min",337.23 ± 46.4 /msec
same,protein concentration after laser irradiation,[1]; time 0 min,15.53 ± 0.14 /msec
same,protein concentration after laser irradiation,"[1]; time 30 min, hydrochloride",58.1 /msec and 58.08 ± 18.14 /msec
same,protein concentration after laser irradiation,[1]; time 60 min,30.85 ± 2.58 /msec
same,"protein concentration after laser irradiation, Non-treated eye","[1]; opposite eye (physiological saline) from eye instilled with 0.1% nicardipine hydrochloride, time 0 min",11.73 ± 2.97 /msec
same,"protein concentration after laser irradiation, Non-treated eye","[1]; opposite eye (physiological saline) from eye instilled with 0.1% nicardipine hydrochloride, time 30 min",118.93 ± 21.21 /msec
same,"protein concentration after laser irradiation, Non-treated eye","[1]; opposite eye (physiological saline) from eye instilled with 0.1% nicardipine hydrochloride, time 60 min",349.85 ± 23.02 /msec
same,effect on the rise of intraocular pressure after laser irradiation,[2]; eye instilled with 0.1% (FIG. 4),significant inhibition of the rise of intraocular pressure
same,intraocular pressure,"[2]; intravenous administration group, 30 minutes after the irradiation (FIG. 1)",24.2 mmHg
same,intraocular pressure,"[2]; intravenous administration group, 1 hour after the irradiation (FIG. 1)",20.8 mmHg
same,time until which the intraocular pressure effect was sustained,"[2]; intravenous administration group, after the irradiation",4 h
same,decrease of intraocular pressure,"[2]; intravenous administration group, at 1 hour after the irradiation versus immediately before laser irradiation",9.3 mmHg
same,intraocular pressure,"[2]; intravenous administration group, immediately before laser irradiation (FIG. 1)",30.1 mmHg
same,effect on PGE2-induced inflammatory responses and temporary rise of intraocular pressure,[3],inhibits these responses in a dose-dependent manner
same,effect on experimental endophthalmitis induced by argon laser photocoagulation of iris,[4],inhibited experimental endophthalmitis
COC(=O)C1=C(C#N)NC(C)=C(C(=O)OC(C)C)C1c1cccc([N+](=O)[O-])c1 (stereo not drawn) [nilvadipine],effect on PGE2-induced inflammatory responses and temporary rise of intraocular pressure,[3],inhibits these responses in a dose-dependent manner
